What was measured:
[1] = cited from earlier work
[2] = system: T84 cells; experiment: Short-circuit current (ISC, Cl- secretion) in T84 cells in Ussing chambers; assay type: cell-based, human; settings: for effect of antagonist on currents induced by imatinib and adenosine: 10 μM antagonist after 100 μM imatinib and 1 μM adenosine; for increase in ISC on basolateral addition of the compound alone: NBMPR 10 μM, imatinib 100 μM, no extracellular adenosine added; for increase in ISC on basolateral addition of the compound alone / currents on apical addition of the TKI: erlotinib 20 μM, gefitinib 100 μM
Description: T84 cells were routinely grown in DMEM/F12 (1:1) cell culture media with 10% FBS, 1 mM sodium pyruvate, 1× penicillin/streptomycin and 10 mM HEPES. For experiments described in this report, T84 cells were grown on 12 mm snapwell inserts for 6-8 days with media changes every 2-3 days. […] Compounds were added in small aliquots to the basolateral or apical chamber and the secretory response was measured as an increase in short-circuit current (ISC) due to Cl^− secretion and was monitored as a function of time.

[3] = patients treated with erlotinib; cited from earlier work
[4] = system: adenine nucleobase transporters; settings: read-out: IC50 for inhibition of adenine transport; 1 μM [3H]adenine, hRPTCs, sodium buffer pH 7.4, 2 minute incubation
Description: Human renal proximal tubule cells (hRPTCs) were seeded in 12-well plates at densities of 10^5 cells/well and grown for 7 days with medium changes every 3-4 days. On the day of experiments, growth medium was aspirated and cells were washed twice with 1.5 ml of 20 mM Tris-HCl buffer (pH 7.4) containing 150 mM NaCl, 1.2 mM MgCl2 and 1 mM CaCl2 (hereafter referred to as sodium buffer). […] At the end of 2 minute incubations, cells were washed twice with sodium buffer and intracellular accumulation of [^3H]adenine was determined by solubilizing cells with 5% Triton-X-100 and subsequent determination of radioactivity in a scintillation counter. Data are presented as percent of values obtained in the absence of a competitor (controls). Resulting concentration-effect curves were analyzed by nonlinear regression analysis using Graph Pad Prism software version 4.0 (Graph Pad Software Inc., San Diego, CA) to obtain IC50 values for the compounds.

For `O=c1[nH]cc(F)c(=O)[nH]1` [5-FU, 5-fluorouracil], the half-life [1] is given as 20 min.
With `Cn1c(=O)c2[nH]c(-c3ccccc3)nc2n(C)c1=O` [8-PT, 8-phenyltheophylline] the “effect of antagonist on ISC induced by adenosine then NBMPR” value ([2]; 10 μM 8-PT after 1 μM adenosine and 10 μM NBMPR, basolateral, FIG. 4) was “ISC returned to baseline levels”, the “effect of antagonist on currents induced by erlotinib and adenosine” value ([2]; 10 μM 8-PT after 20 μM erlotinib and 1 μM adenosine, basolateral, FIG. 8) was “abolished” and the “effect of antagonist on currents induced by gefitinib and adenosine” value ([2]; 10 μM 8-PT after 100 μM gefitinib and 1 μM adenosine, basolateral, FIG. 9) was “abolished”. For the same molecule, the “effect of antagonist on currents induced by apical erlotinib or gefitinib” value ([2]; 10 μM 8-PT apical, FIG. 12) was “abolished”, the “induction of ISC by adenosine after pretreatment with antagonist” value ([2]; 10 μM 8-PT basolateral prior to 1 μM adenosine basolateral, FIG. 7 panel C) was “no induction of ISC” and the “effect of antagonist on currents induced by imatinib and adenosine” value ([2]; basolateral, FIG. 10) was “abolished”. For the same molecule, the “effect of antagonist on ISC induced by NBMPR then adenosine” value ([2]; 8-PT after 10 μM NBMPR and 1 μM adenosine, basolateral, FIG. 6) was “reversed the increase in ISC to baseline activity”.
With `O=[N+]([O-])c1ccc(CSc2ncnc3c2ncn3[C@@H]2O[C@H](CO)[C@@H](O)[C@H]2O)cc1` [NBMPR, nitrobenzylmercaptopurine riboside] the “ISC on addition of NBMPR after adenosine” value ([2]; 10 μM NBMPR after 1 μM adenosine, basolateral, FIG. 4) was “much higher ISC”, the “induction of currents by NBMPR (retest)” value ([2]; 20 μM NBMPR basolateral, FIG. 7 panel B) was “Induction of currents” and the “increase in ISC on basolateral addition of the compound alone” value (“increase in ISC on basolateral addition” below) ([2]; basolateral) was “steady increase in ISC with time”.
With `Nc1ncnc2c1ncn2[C@@H]1O[C@H](CO)[C@@H](O)[C@H]1O` [adenosine] the “ISC on addition of adenosine after NBMPR” value ([2]; 1 μM adenosine after 10 μM NBMPR, basolateral, FIG. 6) was “substantial increase in ISC”, the “currents on addition of adenosine after erlotinib” value ([2]; 1 μM adenosine after 20 μM erlotinib, basolateral, FIG. 8) was “substantial induction of currents” and the “currents on addition of adenosine after gefitinib” value ([2]; 1 μM adenosine after 100 μM gefitinib, basolateral, FIG. 9) was “substantial induction of currents”. The “currents on addition of adenosine after imatinib” value ([2]; 1 μM adenosine after 100 μM imatinib, basolateral, FIG. 10) was “substantial induction of currents”, the “currents on addition of adenosine to apical and both sides” value ([2]; 1 μM adenosine, apical or both sides versus basolateral, FIG. 11) was “much higher currents than on the basolateral side alone” and the “ISC with increasing concentrations of adenosine” value ([2]; adenosine basolateral in 1 μM increments, FIG. 7 panel A) was “ISC increased”.
For `C#Cc1cccc(Nc2ncnc3cc(OCCOC)c(OCCOC)cc23)c1` [erlotinib], the “currents on apical addition of the TKI” value ([2]; FIG. 12) is listed as “slow increase in currents”, the “increase in ISC on basolateral addition” value ([2]; basolateral) is listed as “increase in ISC similar to that of NBMPR” and the “patients who develop diarrhea” value [3] is listed as 30%.
In the case of `COc1cc2ncnc(Nc3ccc(F)c(Cl)c3)c2cc1OCCCN1CCOCC1` [gefitinib], the “currents on apical addition of the TKI” value ([2]; FIG. 12) is reported as “slow increase in currents” and the “increase in ISC on basolateral addition” value ([2]; basolateral) is reported as “slow but steady increase in ISC similar to that of NBMPR”.
In the case of `CCN(CC)CCNC(=O)c1c(C)[nH]c(/C=C2\C(=O)Nc3ccc(F)cc32)c1C` [sunitinib], the IC50 [4] is reported as 50 µM.
In the case of `Cn1c(=O)c2[nH]cnc2n(C)c1=O` [theophylline], the “effect of antagonist on currents induced by imatinib and adenosine” value ([2]; basolateral, FIG. 10) is reported as “abolished” and the “effect of antagonist on adenosine induced increase in ISC” value ([2]; 10 μM antagonist, adenosine alone, FIG. 5) is reported as “blocked”.
`COc1cc2c(Nc3ccc(Br)cc3F)ncnc2cc1OCC1CCN(C)CC1` [vandetanib] gave an IC50 [4] of no less than 100 µM.
